From patent US11673876B2, “Substituted aminobenzyl heteroaryl compounds as EGFR and/or PI3K inhibitors” (Mekanistic Therapeutics LLC, priority 2020, dated 2023) come the findings set out here.

Some results are limits rather than exact numbers.

Series [1] is described as follows: Metabolic stability in human liver microsomes. It is filed as in vitro ADME. Here is the method:
(§1) Working solution: 5 μL of compound and control stock solution (10 mM in dimethyl sulfoxide (DMSO)) were diluted with 495 μL of acetonitrile (ACN) (intermediate solution concentration: 100 μM, 99% ACN)
(§2) NADPH Cofactor Preparation: NADPH powder: β-Nicotinamide adenine dinucleotide phosphate reduced form, tetrasodium salt; NADPH·4Na. The appropriate amount of NADPH powder was weighed and diluted into a 10 mM MgCl2 solution (working solution concentration: 10 unit/mL; final concentration in reaction system: 1 unit/mL)
(§3) Liver Microsomes Preparation: The appropriate concentrations of microsome working solutions were prepared in 100 mM potassium phosphate buffer. Cold (4° C.) acetonitrile (ACN) containing 200 ng/mL tolbutamide and 200 ng/mL labetalol as internal standards (1S) was used as the stop solution
(§4) Assay Procedure: Pre-warm empty ‘Incubation’ plates T60 and NCF60 for 10 minutes. Dilute liver microsomes to 0.56 mg/mL in 100 mM phosphate buffer. Transfer 445 μL microsome working solutions (0.56 mg/mL) into pre-warmed ‘Incubation’ plates T60 and NCF60, Then pre-incubate ‘Incubation’ plates T60 and NCF60 for 10 min at 37° C. with constant shaking. Transfer 54 μL liver microsomes to blank plate, then add 6 μL NAPDH cofactor to blank plate, and then add 180 μL quenching solution to blank plate. Add 5 μL compound working solution (100 μM) into ‘incubation’ plates (T60 and NCF60) containing microsomes and mix 3 times thoroughly.
(§5) For the NCF60 plate, add 50 μL of buffer and mix 3 times thoroughly. Start timing; plate will be incubated at 37° C. for 60 min while shaking. In ‘Quenching’ plate T0, add 180 μL quenching solution and 6 μL NAPDH cofactor. Ensure the plate is chilled to prevent evaporation. For the T60 plate, mix 3 times thoroughly, and immediately remove 54 μL mixture for the 0-min time point to ‘Quenching’ plate. Then add 44 μL NAPDH cofactor to incubation plate (T60). Start timing; plate will be incubated at 37° C. for 60 min while shaking. At 5, 10, 20, 30, and 60 min, add 180 μL quenching solution to ‘Quenching’ plates, mix once, and serially transfer 60 μL sample from T60 plate per time point to ‘Quenching’ plates. For NCF60: mix once, and transfer 60 μL sample from the NCF60 incubation to ‘Quenching’ plate containing quenching solution at the 60-min time point. All sampling plates are shaken for 10 min, then centrifuged at 4000 rpm for 20 minutes at 4° C. Transfer 80 μL supernatant into 240 μL HPLC water, and mix by plate shaker for 10 min. Each bioanalysis plate was sealed and shaken for 10 minutes prior to LC-MS/MS analysis.
(§6) The equation of first order kinetics was used to calculate T½ and CLint(mic) (μL/min/mg). Equation of first order kinetics: […]
(§7) The biological stability of the compounds of the disclosure can be measured by determining its ½ life in the presence microsomes. Presented in Table 5, is the ½ life of selected compounds of the disclosure in the presence of human liver microsomes (HLM) or mouse liver microsomes (MLM) as described above. In Table 5, ½ life is presented as “++++” (value is greater than 60 minutes), “+++” (value is greater than 30 minutes and less than or equal to 60 minutes), “++” (value is greater than 15 minutes and less than or equal to 30 minutes) and “+” (value is 15 minutes or less).

The next series has as its target PI3Ka (Homo sapiens (Human), UniProt P42336). Kind of series: Z'-LYTE / Adapta kinase assay, PI3Ka. To be noted: for inhibition at 0.1 µM: read-out: PI3Ka % Inh. @ 100 nM. It is filed as biochemical. The procedure, abridged:
(§8)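 Z'-LYTE FRET-peptide phosphorylation read as coumarin/fluorescein emission ratio (400 nm excitation); Adapta immunoassay detects ADP formation. 60-min kinase reaction, 60-min development, room temperature.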

A short description of series [2]: Metabolic stability in mouse liver microsomes. The format is in vitro ADME. Here is the method: as §1, §2, §3, §4, §5, §6, §7
A further series addresses EGFR (Homo sapiens (Human), UniProt P00533). As to the kind of experiment: Z'-LYTE / Adapta kinase assay, EGFR. It is filed as biochemical. To be noted: for inhibition at 0.1 µM: read-out: EGFR % Inh. @ 100 nM. An outline of the steps: as §8
A further series concerns the target DNA-PK (Homo sapiens (Human), UniProt P78527). As to the kind of experiment: Z'-LYTE / Adapta kinase assay, DNA-PK. It is filed as biochemical. To be noted: for inhibition at 0.1 µM: read-out: DNA-PK % Inh. @ 100 nM. An outline of the steps:
as §8

PI3Ka, sequence (P42336 whole entry): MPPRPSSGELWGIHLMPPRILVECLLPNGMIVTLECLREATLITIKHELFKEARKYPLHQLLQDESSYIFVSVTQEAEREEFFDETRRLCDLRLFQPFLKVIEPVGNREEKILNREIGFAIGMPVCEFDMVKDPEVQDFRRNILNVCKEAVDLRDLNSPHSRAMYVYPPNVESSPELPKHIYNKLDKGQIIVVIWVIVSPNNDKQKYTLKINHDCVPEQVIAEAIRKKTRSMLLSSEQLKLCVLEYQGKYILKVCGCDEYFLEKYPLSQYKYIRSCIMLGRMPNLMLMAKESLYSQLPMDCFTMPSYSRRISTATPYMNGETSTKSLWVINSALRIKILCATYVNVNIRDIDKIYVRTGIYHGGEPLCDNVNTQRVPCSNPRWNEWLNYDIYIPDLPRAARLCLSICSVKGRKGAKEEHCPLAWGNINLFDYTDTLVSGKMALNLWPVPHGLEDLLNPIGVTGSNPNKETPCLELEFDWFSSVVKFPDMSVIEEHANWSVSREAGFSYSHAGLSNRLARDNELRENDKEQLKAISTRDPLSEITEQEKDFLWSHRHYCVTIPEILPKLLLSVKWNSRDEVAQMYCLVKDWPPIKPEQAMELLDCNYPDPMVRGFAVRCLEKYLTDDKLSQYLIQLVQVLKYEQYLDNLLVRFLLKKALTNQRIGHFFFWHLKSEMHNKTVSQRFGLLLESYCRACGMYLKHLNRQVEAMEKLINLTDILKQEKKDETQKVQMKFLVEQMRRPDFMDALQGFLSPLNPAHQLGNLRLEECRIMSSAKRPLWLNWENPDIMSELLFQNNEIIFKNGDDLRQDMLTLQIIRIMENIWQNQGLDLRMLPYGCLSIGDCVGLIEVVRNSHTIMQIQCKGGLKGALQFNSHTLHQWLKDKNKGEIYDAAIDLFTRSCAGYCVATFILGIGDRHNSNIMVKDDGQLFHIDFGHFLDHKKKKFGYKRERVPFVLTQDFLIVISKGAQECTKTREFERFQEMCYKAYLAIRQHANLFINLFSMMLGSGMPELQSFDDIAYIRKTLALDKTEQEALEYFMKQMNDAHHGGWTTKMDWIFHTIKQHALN
PI3Ka, sequence (P27986 whole entry partner): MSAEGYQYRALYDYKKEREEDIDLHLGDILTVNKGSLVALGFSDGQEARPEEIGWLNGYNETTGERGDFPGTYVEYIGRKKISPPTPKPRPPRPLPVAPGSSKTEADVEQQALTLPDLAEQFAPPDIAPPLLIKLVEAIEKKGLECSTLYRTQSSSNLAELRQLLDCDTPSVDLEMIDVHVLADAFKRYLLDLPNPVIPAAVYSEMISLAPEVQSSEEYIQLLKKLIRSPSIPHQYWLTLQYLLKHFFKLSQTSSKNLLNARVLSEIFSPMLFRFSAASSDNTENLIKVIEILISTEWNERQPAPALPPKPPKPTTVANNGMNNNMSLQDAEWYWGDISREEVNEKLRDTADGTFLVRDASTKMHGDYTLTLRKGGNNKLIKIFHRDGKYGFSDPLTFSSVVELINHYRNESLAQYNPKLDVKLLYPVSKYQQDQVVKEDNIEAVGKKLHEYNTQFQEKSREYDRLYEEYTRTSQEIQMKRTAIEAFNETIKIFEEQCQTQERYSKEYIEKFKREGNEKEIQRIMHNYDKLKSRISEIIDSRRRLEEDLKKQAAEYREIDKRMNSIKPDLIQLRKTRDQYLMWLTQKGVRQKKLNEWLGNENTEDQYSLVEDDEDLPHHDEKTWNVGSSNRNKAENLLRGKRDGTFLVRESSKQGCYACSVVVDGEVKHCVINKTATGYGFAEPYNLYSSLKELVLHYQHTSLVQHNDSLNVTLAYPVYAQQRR
EGFR, sequence (P00533 25-1210): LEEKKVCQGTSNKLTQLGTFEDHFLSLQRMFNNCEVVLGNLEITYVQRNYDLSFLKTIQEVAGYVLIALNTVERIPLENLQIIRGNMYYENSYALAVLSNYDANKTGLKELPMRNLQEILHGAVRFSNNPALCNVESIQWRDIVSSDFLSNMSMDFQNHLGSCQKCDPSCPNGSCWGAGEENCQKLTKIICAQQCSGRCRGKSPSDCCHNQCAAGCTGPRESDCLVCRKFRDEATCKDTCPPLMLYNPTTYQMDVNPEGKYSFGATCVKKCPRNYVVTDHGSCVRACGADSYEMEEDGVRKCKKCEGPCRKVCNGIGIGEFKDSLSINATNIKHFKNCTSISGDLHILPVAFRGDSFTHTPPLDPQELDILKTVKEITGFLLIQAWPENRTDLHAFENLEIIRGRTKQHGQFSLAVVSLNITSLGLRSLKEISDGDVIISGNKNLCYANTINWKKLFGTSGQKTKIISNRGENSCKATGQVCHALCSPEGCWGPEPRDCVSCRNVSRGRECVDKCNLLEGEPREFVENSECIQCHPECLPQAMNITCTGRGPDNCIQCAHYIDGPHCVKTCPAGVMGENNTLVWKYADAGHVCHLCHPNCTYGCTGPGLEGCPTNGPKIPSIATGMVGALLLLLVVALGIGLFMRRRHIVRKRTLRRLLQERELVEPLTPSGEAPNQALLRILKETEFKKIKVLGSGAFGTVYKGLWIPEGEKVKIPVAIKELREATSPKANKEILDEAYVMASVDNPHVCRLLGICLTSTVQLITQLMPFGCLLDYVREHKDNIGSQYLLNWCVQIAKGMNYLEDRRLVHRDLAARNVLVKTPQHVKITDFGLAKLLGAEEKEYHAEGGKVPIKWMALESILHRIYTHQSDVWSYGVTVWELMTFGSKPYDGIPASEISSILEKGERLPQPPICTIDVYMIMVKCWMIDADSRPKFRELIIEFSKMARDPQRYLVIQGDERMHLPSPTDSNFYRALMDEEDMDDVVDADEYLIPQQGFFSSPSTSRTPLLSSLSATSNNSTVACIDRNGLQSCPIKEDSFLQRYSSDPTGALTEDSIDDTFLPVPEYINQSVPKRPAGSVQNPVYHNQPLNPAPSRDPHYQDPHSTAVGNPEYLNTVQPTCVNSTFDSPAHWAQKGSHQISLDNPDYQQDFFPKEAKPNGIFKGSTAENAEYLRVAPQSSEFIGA

Regarding `C[C@H](Nc1c(C#N)cnc2ccc(-c3cnc(Cl)c(NS(C)(=O)=O)c3)cc12)c1ccccc1` [Compound 48S, N-(2-chloro-5-(3-cyano-4-((1S-phenylethyl)amino)quinolin-6-yl)pyridin-3-yl)methanesulfonamide], the “½ life minutes (HLM)” value in series [1] is “++++ (value is greater than 60 minutes)”. At PI3Ka, the “PI3Ka IC50 (nM)” value was “++++ (value is 2 nM or less)” and the inhibition at 0.1 µM is above 90%. In series [2], the “½ life minutes (MLM)” value is on record as “++++ (value is greater than 60 minutes)”. In addition, at EGFR, the IC50 was above 200 nM and the inhibition at 0.1 µM is below 10%. Moreover, at DNA-PK, the IC50 is below 2 nM and the inhibition at 0.1 µM is above 90%.
Consider `C[C@H](Nc1c(C#N)cnc2ccc(-c3cnc(Cl)c(NS(C)(=O)=O)c3)cc12)c1ccc(F)cc1` [Compound 97S, N-(2-chloro-5-(3-cyano-4-((1S-(4-fluorophenyl)ethyl)amino)quinolin-6-yl)pyridin-3-yl)methanesulfonamide], for which, in series [1], the “½ life minutes (HLM)” value was “++++ (value is greater than 60 minutes)”. The IC50 against PI3Ka is below 2 nM; against EGFR it was above 200 nM; against DNA-PK, below 2 nM. The values for the inhibition at 0.1 µM on PI3Ka, on EGFR and at DNA-PK were above 90%, below 10% and above 90%, respectively. For the same molecule, the “½ life minutes (MLM)” value in series [2] is reported as “++++ (value is greater than 60 minutes)”.
For the molecule `C[C@H](Nc1ncnc2ccc(-c3cnc(Cl)c(NS(C)(=O)=O)c3)cc12)c1ccc(F)cc1` [Compound 111S, N-[2-chloro-5-[4-[[(1S)-1-(4-fluorophenyl)ethyl]amino]quinazolin-6-yl]-3-pyridyl]methanesulfonamide], the “½ life minutes (HLM)” value in series [1] was “++++ (value is greater than 60 minutes)”. In addition, at PI3Ka, the “PI3Ka IC50 (nM)” value is on record as “++++ (value is 2 nM or less)”. The inhibition at 0.1 µM at PI3Ka was above 90%; on EGFR, below 10%; at DNA-PK, above 90%. In addition, in series [2], the “½ life minutes (MLM)” value is given as “++++ (value is greater than 60 minutes)”. In addition, the IC50 was above 200 nM against EGFR and below 2 nM against DNA-PK.
As for `CC(Nc1ncnc2ccc(-c3cnc(N)nc3)cc12)c1ccc(F)cc1` (centres unmarked) [Compound 121, 6-(2-aminopyrimidin-5-yl)-N-(1-(4-fluorophenyl)ethyl)quinazolin-4-amine], the “½ life minutes (HLM)” value in series [1] is recorded as “++++ (value is greater than 60 minutes)”. For the same molecule, at PI3Ka, the “PI3Ka IC50 (nM)” value is on record as “+ (value is greater than 200 nM)” and the inhibition at 0.1 µM lay in the range of 10 to 80%. Also, the “½ life minutes (MLM)” value in series [2] is recorded as “++++ (value is greater than 60 minutes)”. Besides, on EGFR, the IC50 fell in the range of 2 to 20 nM and the inhibition at 0.1 µM lay within 80 to 90%. On DNA-PK, the half-inhibitory concentration (IC50) is above 200 nM and the inhibition at 0.1 µM was 10 to 80%.
